The source of these data is PMC7346217, “Insight of Polyphenol Oxidase Enzyme Inhibition and Total Polyphenol Recovery from Cocoa Beans” (Antioxidants, 2020).

The subject of this assay is T1, polyphenol oxidase (PPO) from cocoa beans.
T1 construct: native; isoenzyme not identified
Put plainly: spectrophotometric oxidation ([…] nm), Michaelis-Menten nonlinear regression. In kind it is biochemical, Theobroma cacao. Conditions: crude extract of non-treated beans; McIlvaine buffer pH 6.5; 35 °C; substrate 5-200 mM.
For orientation: Km means the substrate concentration at which the rate is half of its maximum. Regarding `Oc1cc(O)c2c(c1)O[C@H](c1ccc(O)c(O)c1)[C@@H](O)C2` [(+)-catechin], the Michaelis constant (Km) was found to be 1450 ± 350 µM.

As to `Oc1cc(O)c2c(c1)O[C@H](c1ccc(O)c(O)c1)[C@H](O)C2` [(−)-epicatechin], the Km worked out at 1260 ± 370 µM. Turning to `Oc1ccccc1O` [catechol], the Km came out at 610 ± 120 µM.
